# In ChEMBL document CHEMBL5291721, “A preclinical secondary pharmacology resource illuminates target-adverse drug reaction associations of marketed drugs” (Nat Commun, 2023):
# Tests used:
# [1] = target: T1, Alpha-2B adrenergic receptor (Homo sapiens, UniProt P18089)
# T1 sequence (P18089 whole entry): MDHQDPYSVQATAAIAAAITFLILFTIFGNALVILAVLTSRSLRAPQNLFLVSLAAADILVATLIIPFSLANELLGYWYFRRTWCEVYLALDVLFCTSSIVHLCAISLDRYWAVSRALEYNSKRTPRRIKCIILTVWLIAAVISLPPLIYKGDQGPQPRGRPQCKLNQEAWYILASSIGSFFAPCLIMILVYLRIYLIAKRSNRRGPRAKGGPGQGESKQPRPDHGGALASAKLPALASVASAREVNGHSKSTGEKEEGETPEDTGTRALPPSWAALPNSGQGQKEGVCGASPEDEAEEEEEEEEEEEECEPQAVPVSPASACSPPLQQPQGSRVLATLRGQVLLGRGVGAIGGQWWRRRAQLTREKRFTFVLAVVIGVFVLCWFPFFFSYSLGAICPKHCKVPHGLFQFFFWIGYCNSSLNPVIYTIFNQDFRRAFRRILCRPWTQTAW
# [2] = target: Voltage-dependent L-type calcium channel subunit alpha-1C (Rattus norvegicus, UniProt P22002); type: functional
# [3] = target: T2, Cholecystokinin receptor type A (Homo sapiens, UniProt P32238)
# T2 sequence (P32238 whole entry): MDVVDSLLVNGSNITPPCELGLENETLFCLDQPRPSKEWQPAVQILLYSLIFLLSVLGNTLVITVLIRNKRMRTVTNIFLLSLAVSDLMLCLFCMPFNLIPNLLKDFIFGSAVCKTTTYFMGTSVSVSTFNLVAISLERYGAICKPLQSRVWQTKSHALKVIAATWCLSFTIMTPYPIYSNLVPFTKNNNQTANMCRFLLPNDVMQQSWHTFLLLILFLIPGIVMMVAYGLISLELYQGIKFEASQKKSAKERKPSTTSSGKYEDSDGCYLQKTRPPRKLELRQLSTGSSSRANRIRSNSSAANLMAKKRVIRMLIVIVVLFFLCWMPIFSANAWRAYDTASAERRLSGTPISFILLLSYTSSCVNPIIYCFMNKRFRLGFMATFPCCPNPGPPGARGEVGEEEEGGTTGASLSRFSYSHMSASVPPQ
# [4] = target: 5-hydroxytryptamine receptor 2B (Homo sapiens, UniProt P41595); type: functional, cell-based
# [5] = target: T3, 5-hydroxytryptamine receptor 3A (Homo sapiens, UniProt P46098); type: functional
# T3 sequence (P46098 whole entry): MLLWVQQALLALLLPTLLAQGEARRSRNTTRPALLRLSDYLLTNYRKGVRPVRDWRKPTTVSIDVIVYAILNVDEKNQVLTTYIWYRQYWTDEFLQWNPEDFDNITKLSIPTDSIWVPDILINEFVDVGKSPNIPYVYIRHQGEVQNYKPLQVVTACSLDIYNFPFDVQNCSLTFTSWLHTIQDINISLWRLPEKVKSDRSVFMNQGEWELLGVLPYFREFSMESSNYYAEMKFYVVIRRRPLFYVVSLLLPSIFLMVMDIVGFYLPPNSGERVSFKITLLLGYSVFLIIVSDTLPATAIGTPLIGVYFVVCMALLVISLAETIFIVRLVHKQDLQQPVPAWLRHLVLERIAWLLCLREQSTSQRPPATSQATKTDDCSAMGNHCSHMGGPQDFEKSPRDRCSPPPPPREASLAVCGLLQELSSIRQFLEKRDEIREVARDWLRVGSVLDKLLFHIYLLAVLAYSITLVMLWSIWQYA
# Progesterone receptor = target: T4, Progesterone receptor (Homo sapiens, UniProt P06401); type: functional
# T4 sequence (P06401 whole entry): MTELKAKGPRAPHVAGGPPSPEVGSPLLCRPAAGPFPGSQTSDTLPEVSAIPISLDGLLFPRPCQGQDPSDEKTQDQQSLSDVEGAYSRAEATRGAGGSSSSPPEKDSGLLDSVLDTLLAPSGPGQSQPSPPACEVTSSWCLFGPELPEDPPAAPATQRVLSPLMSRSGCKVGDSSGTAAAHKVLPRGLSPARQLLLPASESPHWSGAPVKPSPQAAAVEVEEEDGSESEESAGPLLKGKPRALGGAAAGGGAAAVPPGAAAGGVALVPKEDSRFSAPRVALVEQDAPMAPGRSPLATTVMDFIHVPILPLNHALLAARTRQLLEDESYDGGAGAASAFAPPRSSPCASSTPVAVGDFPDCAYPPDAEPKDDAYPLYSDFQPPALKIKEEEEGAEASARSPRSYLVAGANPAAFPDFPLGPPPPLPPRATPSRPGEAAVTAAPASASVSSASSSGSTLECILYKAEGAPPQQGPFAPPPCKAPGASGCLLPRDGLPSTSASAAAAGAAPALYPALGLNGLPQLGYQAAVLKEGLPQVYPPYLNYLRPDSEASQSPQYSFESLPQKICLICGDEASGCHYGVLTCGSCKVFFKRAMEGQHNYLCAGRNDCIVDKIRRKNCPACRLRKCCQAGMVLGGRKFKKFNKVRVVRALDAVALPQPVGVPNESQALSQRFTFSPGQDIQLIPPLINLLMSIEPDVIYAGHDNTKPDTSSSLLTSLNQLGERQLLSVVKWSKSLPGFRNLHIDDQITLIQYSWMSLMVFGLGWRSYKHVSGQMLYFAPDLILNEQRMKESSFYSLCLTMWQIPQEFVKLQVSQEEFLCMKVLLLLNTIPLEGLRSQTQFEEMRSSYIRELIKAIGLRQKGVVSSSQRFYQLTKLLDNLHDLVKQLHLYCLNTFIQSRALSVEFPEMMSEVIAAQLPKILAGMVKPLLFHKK
# [6] = target: T5, Alpha-1A adrenergic receptor (Homo sapiens, UniProt P35348); type: functional, cell-based
# T5 sequence (P35348 whole entry): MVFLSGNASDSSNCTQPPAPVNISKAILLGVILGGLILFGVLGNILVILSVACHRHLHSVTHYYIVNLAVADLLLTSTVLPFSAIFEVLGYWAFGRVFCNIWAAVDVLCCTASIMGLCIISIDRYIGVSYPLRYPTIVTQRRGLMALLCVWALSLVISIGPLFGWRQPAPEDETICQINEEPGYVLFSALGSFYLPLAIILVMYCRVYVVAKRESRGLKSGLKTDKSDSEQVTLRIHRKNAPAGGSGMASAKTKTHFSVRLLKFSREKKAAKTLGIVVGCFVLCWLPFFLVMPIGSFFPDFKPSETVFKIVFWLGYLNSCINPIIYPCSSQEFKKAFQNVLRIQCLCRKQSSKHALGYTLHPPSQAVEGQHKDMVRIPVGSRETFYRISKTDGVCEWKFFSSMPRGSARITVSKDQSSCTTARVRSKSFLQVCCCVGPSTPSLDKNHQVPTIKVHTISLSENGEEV
# Note: assay procedure not described here.
# Voltage-dependent L-type calcium channel subunit alpha-1C, sequence (P22002 whole entry): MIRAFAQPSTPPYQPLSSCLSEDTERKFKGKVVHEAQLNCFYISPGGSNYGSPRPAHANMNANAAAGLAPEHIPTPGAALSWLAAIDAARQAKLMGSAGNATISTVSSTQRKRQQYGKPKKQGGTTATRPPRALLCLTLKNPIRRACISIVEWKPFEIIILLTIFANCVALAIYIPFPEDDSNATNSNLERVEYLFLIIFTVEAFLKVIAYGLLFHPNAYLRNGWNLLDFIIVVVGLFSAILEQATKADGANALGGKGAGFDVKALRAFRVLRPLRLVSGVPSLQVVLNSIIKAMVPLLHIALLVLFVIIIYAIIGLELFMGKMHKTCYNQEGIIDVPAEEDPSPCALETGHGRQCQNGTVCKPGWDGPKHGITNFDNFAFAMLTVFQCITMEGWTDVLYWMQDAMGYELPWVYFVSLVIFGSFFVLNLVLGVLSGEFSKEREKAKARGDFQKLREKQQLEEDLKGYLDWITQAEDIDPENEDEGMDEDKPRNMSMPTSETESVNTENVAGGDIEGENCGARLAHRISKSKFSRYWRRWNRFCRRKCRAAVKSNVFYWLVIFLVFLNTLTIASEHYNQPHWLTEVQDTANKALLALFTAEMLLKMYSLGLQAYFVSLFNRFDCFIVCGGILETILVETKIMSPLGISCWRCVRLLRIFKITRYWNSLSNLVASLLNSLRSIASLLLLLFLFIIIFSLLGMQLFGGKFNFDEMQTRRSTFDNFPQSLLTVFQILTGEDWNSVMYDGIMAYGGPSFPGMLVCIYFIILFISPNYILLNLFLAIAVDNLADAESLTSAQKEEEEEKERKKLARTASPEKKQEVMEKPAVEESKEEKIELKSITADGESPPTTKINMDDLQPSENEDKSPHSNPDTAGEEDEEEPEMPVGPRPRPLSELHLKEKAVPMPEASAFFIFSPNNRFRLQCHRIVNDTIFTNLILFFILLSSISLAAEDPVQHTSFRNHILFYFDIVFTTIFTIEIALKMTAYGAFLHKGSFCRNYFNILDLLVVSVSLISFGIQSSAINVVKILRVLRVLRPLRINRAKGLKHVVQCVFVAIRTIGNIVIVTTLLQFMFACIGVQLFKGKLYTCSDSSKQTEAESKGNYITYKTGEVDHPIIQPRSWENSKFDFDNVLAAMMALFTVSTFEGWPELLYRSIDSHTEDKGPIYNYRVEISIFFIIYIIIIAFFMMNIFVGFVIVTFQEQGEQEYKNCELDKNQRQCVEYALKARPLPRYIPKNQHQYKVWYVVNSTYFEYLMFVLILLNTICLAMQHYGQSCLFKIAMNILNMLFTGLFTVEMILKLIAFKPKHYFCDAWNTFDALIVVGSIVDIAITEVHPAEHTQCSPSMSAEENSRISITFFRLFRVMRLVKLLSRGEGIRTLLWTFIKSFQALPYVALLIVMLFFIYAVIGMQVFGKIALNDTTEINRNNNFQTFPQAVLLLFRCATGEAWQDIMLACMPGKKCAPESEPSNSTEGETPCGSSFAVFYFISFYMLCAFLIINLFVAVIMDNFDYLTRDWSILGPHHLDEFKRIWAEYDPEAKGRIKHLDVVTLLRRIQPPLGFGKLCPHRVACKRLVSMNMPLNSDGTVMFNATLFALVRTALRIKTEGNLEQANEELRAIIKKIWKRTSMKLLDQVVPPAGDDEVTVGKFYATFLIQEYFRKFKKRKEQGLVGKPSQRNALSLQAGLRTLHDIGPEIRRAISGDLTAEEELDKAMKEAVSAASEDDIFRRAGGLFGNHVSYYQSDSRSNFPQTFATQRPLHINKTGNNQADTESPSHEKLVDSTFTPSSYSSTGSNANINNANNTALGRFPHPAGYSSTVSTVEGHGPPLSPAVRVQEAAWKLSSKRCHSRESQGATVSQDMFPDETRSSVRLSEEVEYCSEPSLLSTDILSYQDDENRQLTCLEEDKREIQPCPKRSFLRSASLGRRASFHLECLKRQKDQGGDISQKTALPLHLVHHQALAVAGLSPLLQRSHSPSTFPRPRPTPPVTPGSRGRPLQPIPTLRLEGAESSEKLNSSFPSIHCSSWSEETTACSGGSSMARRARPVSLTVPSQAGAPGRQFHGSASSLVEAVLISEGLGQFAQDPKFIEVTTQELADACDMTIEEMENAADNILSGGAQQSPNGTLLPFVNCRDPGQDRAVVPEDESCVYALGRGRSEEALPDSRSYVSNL
# 5-hydroxytryptamine receptor 2B, sequence (P41595 whole entry): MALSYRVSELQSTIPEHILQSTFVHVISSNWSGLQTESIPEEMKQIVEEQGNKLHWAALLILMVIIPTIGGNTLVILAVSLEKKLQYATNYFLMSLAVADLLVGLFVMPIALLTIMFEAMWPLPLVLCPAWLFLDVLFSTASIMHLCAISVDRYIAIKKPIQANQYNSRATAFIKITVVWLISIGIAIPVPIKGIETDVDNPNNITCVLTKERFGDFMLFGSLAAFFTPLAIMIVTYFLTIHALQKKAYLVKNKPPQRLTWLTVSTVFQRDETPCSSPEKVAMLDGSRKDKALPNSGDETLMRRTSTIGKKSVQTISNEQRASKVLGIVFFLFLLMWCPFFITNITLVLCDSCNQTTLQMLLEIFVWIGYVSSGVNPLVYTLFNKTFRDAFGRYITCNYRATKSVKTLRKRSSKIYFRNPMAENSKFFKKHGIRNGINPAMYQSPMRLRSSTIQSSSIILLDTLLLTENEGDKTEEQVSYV
smiles,measurement,setting,value
CCC(COC(=O)c1cc(OC)c(OC)c(OC)c1)(c1ccccc1)N(C)C (configuration not stated) [TRIMEBUTINE],AC50,[1],17 µM
same,AC50,[2],21 µM
same,AC50,[3],> 30 µM
same,AC50,[4],> 30 µM
same,AC50,[5],> 30 µM
same,AC50,Progesterone receptor,> 30 µM
same,AC50,[6],> 30 µM
CCCCCC(=O)O[C@]1(C(C)=O)CC[C@H]2[C@@H]3CCC4=CC(=O)CC[C@]4(C)[C@H]3CC[C@@]21C [HYDROXYPROGESTERONE CAPROATE],AC50,[1],> 30 µM
same,AC50,[2],> 30 µM
same,AC50,[3],> 30 µM
same,AC50,[4],> 30 µM
same,AC50,[5],> 30 µM
same,AC50,Progesterone receptor,0.003 µM
same,AC50,[6],> 30 µM
CCOC(=O)O[C@]1(C(=O)OCCl)CC[C@H]2[C@@H]3CCC4=CC(=O)C=C[C@]4(C)[C@H]3[C@@H](O)C[C@@]21C [LOTEPREDNOL ETABONATE],AC50,[1],> 30 µM
same,AC50,[2],> 30 µM
same,AC50,[3],> 30 µM
same,AC50,[4],> 30 µM
same,AC50,[5],> 30 µM
same,AC50,Progesterone receptor,0.024 µM
same,AC50,[6],> 30 µM
CC(=O)SC[C@@H](C)C(=O)N1CCC[C@H]1C(=O)N[C@@H](Cc1ccccc1)C(=O)O,AC50,[1],> 30 µM
same,AC50,[2],> 30 µM
same,AC50,[3],> 30 µM
same,AC50,[4],> 30 µM
same,AC50,[5],> 30 µM
same,AC50,Progesterone receptor,> 30 µM
same,AC50,[6],> 30 µM
CC1=C(C)C(=O)C(C(CCCCCC(=O)O)c2ccccc2)=C(C)C1=O (configuration not stated) [SERATRODAST],AC50,[1],> 30 µM
same,AC50,[2],> 30 µM
same,AC50,[3],> 30 µM
same,AC50,[4],> 30 µM
same,AC50,[5],> 30 µM
same,AC50,Progesterone receptor,> 30 µM
same,AC50,[6],> 30 µM
CCN(CC)C(=O)Nc1ccc(OCC(O)CNC(C)(C)C)c(C(C)=O)c1 (configuration not stated) [CELIPROLOL],AC50,[1],> 30 µM
same,AC50,[2],> 30 µM
same,AC50,[3],> 30 µM
same,AC50,[4],> 30 µM
same,AC50,[5],> 30 µM
same,AC50,Progesterone receptor,> 30 µM
same,AC50,[6],> 30 µM
COc1ccc2nc3cc(Cl)ccc3c(Nc3cc(CN4CCCC4)c(O)c(CN4CCCC4)c3)c2n1 [PYRONARIDINE],AC50,[1],> 30 µM
same,AC50,[2],> 30 µM
same,AC50,[3],> 30 µM
same,AC50,[4],> 30 µM
same,AC50,[5],> 30 µM
same,AC50,Progesterone receptor,14 µM
same,AC50,[6],> 30 µM
CCCCCCCCCCCCCCCCCCCCCC(=O)Nc1ccn([C@@H]2O[C@H](CO)[C@@H](O)[C@@H]2O)c(=O)n1 [ENOCITABINE],AC50,[1],> 30 µM
same,AC50,[2],> 30 µM
same,AC50,[3],> 30 µM
same,AC50,[4],> 30 µM
same,AC50,[5],> 30 µM
same,AC50,Progesterone receptor,> 30 µM
same,AC50,[6],> 30 µM
C=C1/C(=C\C=C2/CCC[C@]3(C)[C@@H]([C@H](C)/C=C/[C@@H](O)C4CC4)CC[C@@H]23)C[C@@H](O)C[C@@H]1O [CALCIPOTRIENE],AC50,[1],> 30 µM
same,AC50,[2],> 30 µM
same,AC50,[3],> 30 µM
same,AC50,[4],> 30 µM
same,AC50,[5],> 30 µM
same,AC50,Progesterone receptor,> 30 µM
same,AC50,[6],> 30 µM
COc1ccc(-c2noc(CC(=O)O)c2-c2ccc(OC)cc2)cc1 [MOFEZOLAC],AC50,[1],> 30 µM
same,AC50,[2],> 30 µM
same,AC50,[3],> 30 µM
same,AC50,[4],> 30 µM
same,AC50,[5],> 30 µM
same,AC50,Progesterone receptor,> 30 µM
same,AC50,[6],> 30 µM
CC(=O)O[C@H](CC(=O)[O-])C[N+](C)(C)C [ACETYLCARNITINE],AC50,[1],> 30 µM
same,AC50,[2],> 30 µM
same,AC50,[3],> 30 µM
same,AC50,[4],> 30 µM
same,AC50,[5],> 30 µM
same,AC50,Progesterone receptor,> 30 µM
same,AC50,[6],> 30 µM
